The text below walks through data of paper PMC6277198, “Molecular basis for activation of lecithin:cholesterol acyltransferase by a compound that increases HDL cholesterol” (eLife, 2018).

Numbering of substitutions follows the chain as printed. Entries after “also recorded” stand apart in the source; their conditions may differ.

Assay [1] has as its target T1, LCAT R244A (Homo sapiens, UniProt P04180, R268A).
T1 construct: hydrolysis of 4-methylumbelliferyl palmitate (MUP) by full-length LCAT; made in house; host or cells: HEK293F (transient transfection, secreted)
T1 sequence (P04180 25-440 R268A): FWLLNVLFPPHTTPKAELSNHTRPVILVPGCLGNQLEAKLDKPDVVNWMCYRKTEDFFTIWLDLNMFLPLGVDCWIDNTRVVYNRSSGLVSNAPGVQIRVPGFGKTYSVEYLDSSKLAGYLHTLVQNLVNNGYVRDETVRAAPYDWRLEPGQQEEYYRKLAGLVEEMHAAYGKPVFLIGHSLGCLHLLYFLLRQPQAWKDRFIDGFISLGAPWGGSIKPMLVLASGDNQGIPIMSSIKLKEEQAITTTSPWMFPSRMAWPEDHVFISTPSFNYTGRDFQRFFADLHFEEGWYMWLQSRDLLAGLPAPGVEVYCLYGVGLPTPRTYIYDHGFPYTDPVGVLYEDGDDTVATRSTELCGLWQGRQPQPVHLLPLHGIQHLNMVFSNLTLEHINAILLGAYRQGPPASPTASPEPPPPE
In words: Differential scanning fluorimetry. Format: binding. The note with it: addition of compound 1. The protocol:
(§1) Tm values were determined using an Applied Biosystems QuantStudio 7 Flex qPCR machine with two replicates performed at least in triplicate. LCAT at 0.05 mg mL^−1 was diluted into reaction buffer containing 5X Sypro Orange in a final volume of 10 μL in 384-well PCR plates. DMSO or compound 1 was added so that all reactions contained 3% DMSO. The reactions were run from 25–95 °C with a ramp rate of 0.03 °C s^−1. Tm values were determined as the derivative using Protein Thermal Shift software. Significance was determined using a one-way analysis of variance followed by Tukey’s multiple comparisons post-test in GraphPad Prism.

In assay [2] the target is T2, LCAT R244H (Homo sapiens, UniProt P04180, R268H).
T2 construct: hydrolysis of 4-methylumbelliferyl palmitate (MUP) by full-length LCAT; made in house; host or cells: HEK293F (transient transfection, secreted)
T2 sequence (P04180 25-440 R268H): T1 sequence (P04180 25-440 R268A) with A244H
Description: Differential scanning fluorimetry. Format: binding. The conditions noted are these: addition of compound 1. The protocol:
as §1
(Differential scanning fluorimetry follows unfolding on heating by fluorescence.)

In assay [3] the target is T3, LPLA2 (Homo sapiens, UniProt Q8NCC3).
T3 sequence (Q8NCC3 34-412): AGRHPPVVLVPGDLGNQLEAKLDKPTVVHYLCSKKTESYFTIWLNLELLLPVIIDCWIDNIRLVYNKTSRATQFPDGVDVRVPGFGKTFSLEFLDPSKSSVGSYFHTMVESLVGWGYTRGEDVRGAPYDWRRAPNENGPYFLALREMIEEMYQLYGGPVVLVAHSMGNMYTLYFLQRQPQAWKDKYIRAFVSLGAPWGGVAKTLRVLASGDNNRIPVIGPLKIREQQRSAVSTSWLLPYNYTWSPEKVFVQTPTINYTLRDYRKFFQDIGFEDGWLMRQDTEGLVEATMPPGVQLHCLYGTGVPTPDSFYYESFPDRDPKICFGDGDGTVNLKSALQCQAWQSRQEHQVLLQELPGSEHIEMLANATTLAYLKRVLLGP
Description: Differential scanning fluorimetry. In kind it is binding.

In assay [4] the test system is LPLA2 chimeric variants (S33Y, I53G, and S33Y/I53G). In words: Differential scanning fluorimetry. Format: binding.
The target in assay [5] is T4, WT LCAT (Homo sapiens, UniProt P04180).
T4 sequence (P04180 25-440): T1 sequence (P04180 25-440 R268A) with A244R
Description: MST binding assay. The arrangement: hydrolysis of 4-methylumbelliferyl palmitate (MUP) by full-length LCAT; made in house; host or cells: HEK293F (transient transfection, secreted). Here is the method: MST was used to determine the binding affinity of the compounds to LCAT. Recombinant proteins were labeled with a fluorophore using the Monolith His-tag labeling RED-Tris-NTA 2nd Generation kit following manufacturer’s protocol. Compounds were titrated in a two-fold dilution series starting at 20 μM and incubated with the same volume of 100 nM labeled recombinant protein for 5 min at room temperature. Measurements were carried out in PBS containing 0.05% Tween-20 and standard capillaries using a Monolith NT.115 instrument (Nanotemper Technologies) with 50% LED excitation power, 60% MST power, MST on-time of 30 s and off-time of 5 s. Kd values were calculated by fitting the thermophoresis signal at 20 s of the thermograph using MO.AffinityAnalysis software.

What is called Kd is the constant that tells how readily two partners part at equilibrium. Consider `N#Cc1cnc(N2CCC(c3n[nH]c4c3C(O)(C(F)(F)F)CC(=O)N4)CC2)cc1C(F)(F)F` (stereo not shown) [compound 1, 6-(4-(4-Hydroxy-6-oxo-4-(trifluoromethyl)−4,5,6,7-tetrahydro-1H-pyrazolo[3,4-b]pyridin-3-yl)piperidin-1-yl)−4-(trifluoromethyl)nicotinonitrile], for which the entries for the “∆Tm” value in assay [1] and in assay [2] were 6.0 ˚C and 4.8 ˚C, respectively. The “Thermal stabilization (DSF)” value is “not stabilized” in assay [3] and “unable to be stabilized” in assay [4]. Besides, the “Binding to WT LCAT by MST” value in assay [5] is “does”. Moreover, in assay [5] (read-out: Kd, binding to LCAT via microscale thermophoresis), the Kd turned out to be 100 ± 14 nM.

Consider `O=C1CC(O)(C(F)(F)F)c2c(ncn2C2CCNCC2)N1` (stereo not shown) [compound 6, 7-Hydroxy-1-(piperidin-4-yl)−7-(trifluoromethyl)−6,7-dihydro-1H-imidazo[4,5-b]pyridin-5(4H)-one], for which the “Binding to WT LCAT by MST” value in assay [5] is “does not bind; also recorded: unable to bind”.
